Reference: patent US20230391768A2, “IMIDAZOPYRIDINE DERIVATIVES AND AZA-IMIDAZOPYRIDINE DERIVATIVES AS JANUS KINASE 2 INHIBITORS AND USES THEREOF” (Dana-Farber Cancer Institute, Inc., priority 2018, published 2023)

Experiments:
Test in all cases: KINOMEscan
Assay type in all cases: binding
Settings in all cases: read-out: percent of control
ZAP70 = ZAP70 (Homo sapiens (Human), UniProt P43403)
Protocol: (§1) In vitro profiling of Compound I-2 (1 μM) was performed using the DiscoveRx KINOMEscan® platform.

MYLK4 = MYLK4 (Homo sapiens (Human), UniProt Q86YV6)
Protocol: as §1

[1] = molecular target: JAK2(JH1domain-catalytic (Homo sapiens (Human), UniProt O60674))
Protocol: as §1

YANK3 = YANK3 (Homo sapiens (Human), UniProt Q86UX6)
Protocol: as §1

PAK6 = PAK6 (Homo sapiens (Human), UniProt Q9NQU5)
Protocol: as §1

PRKD3 = PRKD3 (Homo sapiens (Human), UniProt O94806)
Protocol: as §1

BMPR2 = BMPR2 (Homo sapiens (Human), UniProt Q13873)
Protocol: as §1

SRPK2 = SRPK2 (Homo sapiens (Human), UniProt P78362)
Protocol: as §1

CSNK1A1L = CSNK1A1L (Homo sapiens (Human), UniProt Q8N752)
Protocol: as §1

IRAK1 = IRAK1 (Homo sapiens (Human), UniProt P51617)
Protocol: as §1

ERN1 = ERN1 (Homo sapiens (Human), UniProt O75460)
Protocol: as §1

CSNK1G2 = CSNK1G2 (Homo sapiens (Human), UniProt P78368)
Protocol: as §1

TNNI3K = TNNI3K (Homo sapiens (Human), UniProt Q59H18)
Protocol: as §1

ITK = ITK (Homo sapiens (Human), UniProt Q08881)
Protocol: as §1

RIPK2 = RIPK2 (Homo sapiens (Human), UniProt O43353)
Protocol: as §1

WEE2 = WEE2 (Homo sapiens (Human), UniProt P0C1S8)
Protocol: as §1

ERK8 = ERK8 (Homo sapiens (Human), UniProt Q8TD08)
Protocol: as §1

EPHA8 = EPHA8 (Homo sapiens (Human), UniProt P29322)
Protocol: as §1

INSRR = INSRR (Homo sapiens (Human), UniProt P14616)
Protocol: as §1

DAPK1 = DAPK1 (Homo sapiens (Human), UniProt P53355)
Protocol: as §1

MST4 = MST4 (Homo sapiens (Human), UniProt Q9P289)
Protocol: as §1

TGFBR2 = TGFBR2 (Homo sapiens (Human), UniProt P37173)
Protocol: as §1

HPK1 = HPK1 (Homo sapiens (Human), UniProt Q92918)
Protocol: as §1

EGFR(L747-E749del,A750P) = EGFR(L747-E749del,A750P) (Homo sapiens (Human), UniProt P00533, A750P/DEL747-749)
Protocol: as §1

HIPK4 = HIPK4 (Homo sapiens (Human), UniProt Q8NE63)
Protocol: as §1

ROCK1 = ROCK1 (Homo sapiens (Human), UniProt Q13464)
Protocol: as §1

[2] = molecular target: RSK4 (Kin.Dom.1-N-terminal) (Homo sapiens (Human), UniProt Q9UK32)
Protocol: as §1

PIK3CA = PIK3CA (Homo sapiens (Human), UniProt P42336)
Protocol: as §1

ACVRL1 = ACVRL1 (Homo sapiens (Human), UniProt P37023)
Protocol: as §1

WEE1 = WEE1 (Homo sapiens (Human), UniProt P30291)
Protocol: as §1

RET (V804M) = RET (V804M) (Homo sapiens (Human), UniProt P07949, V804M)
Protocol: as §1

MKNK2 = MKNK2 (Homo sapiens (Human), UniProt Q9HBH9)
Protocol: as §1

ERK4 = ERK4 (Homo sapiens (Human), UniProt P31152)
Protocol: as §1

DDR2 = DDR2 (Homo sapiens (Human), UniProt Q16832)
Protocol: as §1

MST1 = MST1 (Homo sapiens (Human), UniProt Q13043)
Protocol: as §1

DRAK2 = DRAK2 (Homo sapiens (Human), UniProt O94768)
Protocol: as §1

SGK3 = SGK3 (Homo sapiens (Human), UniProt Q96BR1)
Protocol: as §1

GCN2(Kin.Dom.2,S808G) = GCN2(Kin.Dom.2,S808G) (Homo sapiens (Human), UniProt Q9P2K8, S808G)
Protocol: as §1

ALK = ALK (Homo sapiens (Human), UniProt Q9UM73)
Protocol: as §1

Chain of HPK1 (Q92918 whole entry): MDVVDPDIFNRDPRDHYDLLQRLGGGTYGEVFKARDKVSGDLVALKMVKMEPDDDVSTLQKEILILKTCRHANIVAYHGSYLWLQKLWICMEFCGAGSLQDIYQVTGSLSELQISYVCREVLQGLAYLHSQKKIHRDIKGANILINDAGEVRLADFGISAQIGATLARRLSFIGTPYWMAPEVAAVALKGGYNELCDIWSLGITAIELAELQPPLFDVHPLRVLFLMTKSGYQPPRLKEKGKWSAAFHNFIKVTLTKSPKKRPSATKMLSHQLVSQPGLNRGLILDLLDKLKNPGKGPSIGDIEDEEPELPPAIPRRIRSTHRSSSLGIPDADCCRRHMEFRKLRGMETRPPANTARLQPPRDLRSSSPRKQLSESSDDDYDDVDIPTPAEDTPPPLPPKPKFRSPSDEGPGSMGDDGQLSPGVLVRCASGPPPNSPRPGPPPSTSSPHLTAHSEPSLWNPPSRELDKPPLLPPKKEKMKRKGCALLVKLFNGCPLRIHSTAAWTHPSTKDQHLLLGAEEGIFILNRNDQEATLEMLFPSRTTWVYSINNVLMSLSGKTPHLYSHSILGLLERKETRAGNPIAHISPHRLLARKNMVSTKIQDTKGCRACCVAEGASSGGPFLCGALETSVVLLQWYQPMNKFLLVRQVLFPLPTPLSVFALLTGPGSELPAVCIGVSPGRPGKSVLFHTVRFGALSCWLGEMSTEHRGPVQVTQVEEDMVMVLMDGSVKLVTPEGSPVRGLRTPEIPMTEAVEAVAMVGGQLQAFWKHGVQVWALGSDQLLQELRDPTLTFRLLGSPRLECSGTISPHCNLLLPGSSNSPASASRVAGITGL
Chain of ZAP70 (P43403 whole entry): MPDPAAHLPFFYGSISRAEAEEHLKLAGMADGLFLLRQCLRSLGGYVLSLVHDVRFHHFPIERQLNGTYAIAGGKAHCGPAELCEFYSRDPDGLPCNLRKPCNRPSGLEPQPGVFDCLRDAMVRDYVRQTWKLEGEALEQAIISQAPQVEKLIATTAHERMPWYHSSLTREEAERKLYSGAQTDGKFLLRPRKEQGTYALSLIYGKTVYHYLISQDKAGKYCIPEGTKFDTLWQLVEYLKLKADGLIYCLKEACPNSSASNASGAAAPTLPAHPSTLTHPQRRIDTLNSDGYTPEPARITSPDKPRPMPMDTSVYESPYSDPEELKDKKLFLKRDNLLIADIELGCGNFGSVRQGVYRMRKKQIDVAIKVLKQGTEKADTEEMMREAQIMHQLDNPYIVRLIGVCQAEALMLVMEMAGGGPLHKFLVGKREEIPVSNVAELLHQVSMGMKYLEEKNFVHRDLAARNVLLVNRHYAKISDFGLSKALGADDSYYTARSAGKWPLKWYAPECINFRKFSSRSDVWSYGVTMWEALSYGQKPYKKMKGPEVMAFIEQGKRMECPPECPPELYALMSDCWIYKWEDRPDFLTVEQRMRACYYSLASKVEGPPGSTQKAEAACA
Chain of MYLK4 (Q86YV6 whole entry): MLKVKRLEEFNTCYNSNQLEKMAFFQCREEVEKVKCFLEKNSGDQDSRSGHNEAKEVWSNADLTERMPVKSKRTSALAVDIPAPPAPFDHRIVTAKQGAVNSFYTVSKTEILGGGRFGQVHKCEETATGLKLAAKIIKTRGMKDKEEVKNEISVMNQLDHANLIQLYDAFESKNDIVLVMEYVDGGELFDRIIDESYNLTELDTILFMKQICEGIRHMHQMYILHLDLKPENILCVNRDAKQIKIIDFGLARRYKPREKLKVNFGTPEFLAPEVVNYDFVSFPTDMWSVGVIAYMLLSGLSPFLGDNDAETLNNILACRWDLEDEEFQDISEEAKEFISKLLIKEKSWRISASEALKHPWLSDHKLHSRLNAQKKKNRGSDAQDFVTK
Chain of SGK3 (Q96BR1 whole entry): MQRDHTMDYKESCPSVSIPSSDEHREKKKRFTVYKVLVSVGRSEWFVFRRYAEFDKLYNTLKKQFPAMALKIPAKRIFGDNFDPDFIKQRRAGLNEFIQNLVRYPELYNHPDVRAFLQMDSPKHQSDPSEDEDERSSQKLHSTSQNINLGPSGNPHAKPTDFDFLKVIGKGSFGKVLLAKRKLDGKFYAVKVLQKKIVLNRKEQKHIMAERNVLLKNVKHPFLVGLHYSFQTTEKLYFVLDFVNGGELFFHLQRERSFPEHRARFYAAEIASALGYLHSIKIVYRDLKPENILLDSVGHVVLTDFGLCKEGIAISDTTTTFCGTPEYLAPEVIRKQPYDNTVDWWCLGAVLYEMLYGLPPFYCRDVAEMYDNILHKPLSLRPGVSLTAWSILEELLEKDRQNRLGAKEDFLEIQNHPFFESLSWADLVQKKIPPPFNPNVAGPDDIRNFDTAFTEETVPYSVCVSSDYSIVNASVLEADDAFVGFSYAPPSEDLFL
Chain of EPHA8 (P29322 28-1005): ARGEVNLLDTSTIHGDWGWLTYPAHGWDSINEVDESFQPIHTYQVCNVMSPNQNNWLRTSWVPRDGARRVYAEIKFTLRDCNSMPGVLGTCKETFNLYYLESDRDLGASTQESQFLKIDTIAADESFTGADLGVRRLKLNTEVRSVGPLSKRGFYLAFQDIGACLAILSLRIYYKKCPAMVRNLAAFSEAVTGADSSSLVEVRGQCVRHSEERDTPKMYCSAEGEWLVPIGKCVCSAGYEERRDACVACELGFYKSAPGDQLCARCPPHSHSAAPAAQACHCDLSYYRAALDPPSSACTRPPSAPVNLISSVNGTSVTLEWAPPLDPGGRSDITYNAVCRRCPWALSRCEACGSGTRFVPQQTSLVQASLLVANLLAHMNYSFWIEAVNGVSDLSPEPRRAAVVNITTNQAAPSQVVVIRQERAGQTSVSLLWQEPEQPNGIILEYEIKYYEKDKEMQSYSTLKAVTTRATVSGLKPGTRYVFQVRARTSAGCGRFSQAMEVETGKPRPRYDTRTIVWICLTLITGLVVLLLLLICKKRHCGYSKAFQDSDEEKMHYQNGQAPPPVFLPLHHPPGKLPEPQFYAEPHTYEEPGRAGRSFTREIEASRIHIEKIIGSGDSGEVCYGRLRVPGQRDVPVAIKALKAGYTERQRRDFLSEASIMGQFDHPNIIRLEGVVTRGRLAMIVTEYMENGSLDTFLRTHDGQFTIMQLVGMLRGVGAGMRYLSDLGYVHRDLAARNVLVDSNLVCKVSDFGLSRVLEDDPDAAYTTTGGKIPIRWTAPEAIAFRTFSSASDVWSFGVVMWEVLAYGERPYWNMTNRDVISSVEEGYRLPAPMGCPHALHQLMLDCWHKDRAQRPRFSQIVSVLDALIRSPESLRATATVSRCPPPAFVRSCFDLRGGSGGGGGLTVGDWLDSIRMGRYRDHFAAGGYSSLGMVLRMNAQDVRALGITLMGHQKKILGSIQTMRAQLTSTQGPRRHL
Chain of HIPK4 (Q8NE63 whole entry): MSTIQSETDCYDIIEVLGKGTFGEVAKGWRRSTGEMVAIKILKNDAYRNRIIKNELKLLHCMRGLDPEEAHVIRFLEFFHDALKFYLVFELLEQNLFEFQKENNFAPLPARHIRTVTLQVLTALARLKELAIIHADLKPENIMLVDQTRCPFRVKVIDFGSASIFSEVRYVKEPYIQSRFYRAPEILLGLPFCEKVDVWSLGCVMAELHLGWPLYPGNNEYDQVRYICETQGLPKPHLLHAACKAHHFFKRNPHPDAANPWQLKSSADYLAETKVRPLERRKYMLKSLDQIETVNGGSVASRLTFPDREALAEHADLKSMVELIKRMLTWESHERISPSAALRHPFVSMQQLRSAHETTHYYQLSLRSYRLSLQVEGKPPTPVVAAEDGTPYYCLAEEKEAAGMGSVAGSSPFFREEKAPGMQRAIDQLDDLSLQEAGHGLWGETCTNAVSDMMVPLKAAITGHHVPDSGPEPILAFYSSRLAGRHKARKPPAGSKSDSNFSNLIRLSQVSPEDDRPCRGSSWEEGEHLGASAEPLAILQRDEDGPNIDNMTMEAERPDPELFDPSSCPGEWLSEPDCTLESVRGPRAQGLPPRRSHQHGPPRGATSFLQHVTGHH
Chain of IRAK1 (P51617 whole entry): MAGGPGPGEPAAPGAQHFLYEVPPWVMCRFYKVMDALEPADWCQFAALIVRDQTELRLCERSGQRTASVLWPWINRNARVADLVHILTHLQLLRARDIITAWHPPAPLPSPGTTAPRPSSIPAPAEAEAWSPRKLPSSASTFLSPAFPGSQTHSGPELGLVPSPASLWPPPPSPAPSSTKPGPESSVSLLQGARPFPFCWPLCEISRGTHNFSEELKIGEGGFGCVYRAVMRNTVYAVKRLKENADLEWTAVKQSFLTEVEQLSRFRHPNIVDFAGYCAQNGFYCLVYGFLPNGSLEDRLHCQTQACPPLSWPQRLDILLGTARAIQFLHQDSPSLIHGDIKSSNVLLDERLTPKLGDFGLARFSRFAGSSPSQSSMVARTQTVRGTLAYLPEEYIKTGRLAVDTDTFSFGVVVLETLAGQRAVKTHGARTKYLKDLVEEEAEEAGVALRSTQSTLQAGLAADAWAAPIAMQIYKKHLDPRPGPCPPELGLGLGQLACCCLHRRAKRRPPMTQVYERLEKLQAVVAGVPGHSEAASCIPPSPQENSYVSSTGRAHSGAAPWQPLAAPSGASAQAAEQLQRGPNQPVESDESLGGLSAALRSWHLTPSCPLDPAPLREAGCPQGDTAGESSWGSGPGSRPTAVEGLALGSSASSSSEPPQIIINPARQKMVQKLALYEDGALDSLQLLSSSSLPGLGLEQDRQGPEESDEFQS
Chain of JAK2(JH1domain-catalytic (O60674 849-1124): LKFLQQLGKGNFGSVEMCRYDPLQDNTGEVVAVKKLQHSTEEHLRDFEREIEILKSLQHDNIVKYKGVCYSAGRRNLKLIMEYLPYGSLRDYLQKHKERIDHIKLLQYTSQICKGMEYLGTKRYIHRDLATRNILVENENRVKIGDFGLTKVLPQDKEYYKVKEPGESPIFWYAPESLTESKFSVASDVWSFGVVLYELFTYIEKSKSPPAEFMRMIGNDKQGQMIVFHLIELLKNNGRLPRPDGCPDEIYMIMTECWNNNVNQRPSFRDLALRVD

Compound | remaining binding at 1 µM (ZAP70) [%] | remaining binding at 1 µM (MYLK4) [%] | remaining binding at 1 µM [1] [%] | remaining binding at 1 µM (YANK3) [%] | remaining binding at 1 µM (PAK6) [%] | remaining binding at 1 µM (PRKD3) [%] | remaining binding at 1 µM (BMPR2) [%] | remaining binding at 1 µM (SRPK2) [%] | remaining binding at 1 µM (CSNK1A1L) [%] | remaining binding at 1 µM (IRAK1) [%] | remaining binding at 1 µM (ERN1) [%] | remaining binding at 1 µM (CSNK1G2) [%] | remaining binding at 1 µM (TNNI3K) [%] | remaining binding at 1 µM (ITK) [%] | remaining binding at 1 µM (RIPK2) [%] | remaining binding at 1 µM (WEE2) [%] | remaining binding at 1 µM (ERK8) [%] | remaining binding at 1 µM (EPHA8) [%] | remaining binding at 1 µM (INSRR) [%] | remaining binding at 1 µM (DAPK1) [%] | further results
CCN1CCN(Cc2cc(NC(=O)c3ccc(C)c(-c4ccc5nc(NC(=O)C6CC6)cn5c4)c3)cc(C(F)(F)F)c2)CC1 [Compound I-6, 3-(2-(cyclopropanecarboxamido)imidazo[1,2-a]pyridin-6-yl)-N-(3-((4-ethylpiperazin-1-yl)methyl)-5-(trifluoromethyl)phenyl)-4-methylbenzamide] | 30 | 100 | 6.5 | 100 | 97 | 90 | 100 | 100 | 97 | 29 | 78 | 100 | 36 | 5.8 | 35 | 95 | 3.1 | 0 | 3.8 | 100 | remaining binding at 1 µM (MST4): 100%; remaining binding at 1 µM (TGFBR2): 86%; remaining binding at 1 µM (HPK1): 0.75%; remaining binding at 1 µM (EGFR(L747-E749del,A750P)): 18%; remaining binding at 1 µM (HIPK4): 55%; remaining binding at 1 µM (ROCK1): 100%; remaining binding at 1 µM [2]: 87%; remaining binding at 1 µM (PIK3CA): 96%; remaining binding at 1 µM (ACVRL1): 92%; remaining binding at 1 µM (WEE1): 100%; remaining binding at 1 µM (RET (V804M)): 0%; remaining binding at 1 µM (MKNK2): 82%; remaining binding at 1 µM (ERK4): 100%; remaining binding at 1 µM (DDR2): 0%; remaining binding at 1 µM (MST1): 60%; remaining binding at 1 µM (DRAK2): 98%; remaining binding at 1 µM (SGK3): 100%; remaining binding at 1 µM (GCN2(Kin.Dom.2,S808G)): 97%; remaining binding at 1 µM (ALK): 16%
CCN1CCN(Cc2cc(NC(=O)c3ccc(C)c(-c4ccc5nc(NC(=O)C6CC6)cn5n4)c3)cc(C(F)(F)F)c2)CC1 [Compound I-2, 3-(2-(cyclopropanecarboxamido)imidazo[1,2-b]pyridazin-6-yl)-N-(3-((4-ethylpiperazin-1-yl)methyl)-5-(trifluoromethyl)phenyl)-4-methylbenzamide] | 66 | 96 | 7.9 | 91 | 95 | 100 | 100 | 73 | 100 | 18 | 84 | 92 | 56 | 1.4 | 89 | 100 | 2.2 | 0 | 0.55 | 100 | remaining binding at 1 µM (MST4): 92%; remaining binding at 1 µM (TGFBR2): 90%; remaining binding at 1 µM (HPK1): 0.1%; remaining binding at 1 µM (EGFR(L747-E749del,A750P)): 14%; remaining binding at 1 µM (HIPK4): 32%; remaining binding at 1 µM (ROCK1): 86%; remaining binding at 1 µM [2]: 93%; remaining binding at 1 µM (PIK3CA): 78%; remaining binding at 1 µM (ACVRL1): 91%; remaining binding at 1 µM (WEE1): 94%; remaining binding at 1 µM (RET (V804M)): 0.05%; remaining binding at 1 µM (MKNK2): 87%; remaining binding at 1 µM (ERK4): 96%; remaining binding at 1 µM (DDR2): 0.1%; remaining binding at 1 µM (MST1): 30%; remaining binding at 1 µM (DRAK2): 89%; remaining binding at 1 µM (SGK3): 100%; remaining binding at 1 µM (GCN2(Kin.Dom.2,S808G)): 82%; remaining binding at 1 µM (ALK): 8.7%
